For one data set, the system named is eosinophils. Kind of data set: Effect of Gal-9 on induced apoptosis of eosinophils. The data set is classed as cell-based.
Another data set concerns MOLT-4 cells. Kind of data set: Apoptosis analysis by PI method in MOLT-4 cells. The data set is classed as cell-based, human. As for the experimental part: MOLT-4 (T cell), Jurkat (T cell), BALL-1 (B cell), THP-1 (acute monocytic leukemia derived cell), and HL60 (acute promyelotic leukemia derived cell) cells were obtained from American Type Culture Collection (ATCC). All the cell lines were maintained in an RPMI-1640 medium (Sigma, St. Louis, US) supplemented with 10% FCS in 5% Co2 at 37° C. Lactose (30 mM) was added to the culture medium to inhibit Gal-9 activity. The same concentration of sucrose was used as a control.
Cells that underwent apoptosis induction were centrifuged at 4° C. for 5 min at 1,000 rpm, and the cell pellet was resuspended in PBS (300 μL), and adjusted to a final concentration of 70% by gradually adding 100% cold ethanol (700 μL) to the suspended cells with vortexing. Cells were fixed by incubation at 4° C. for 30 min, and centrifuged at 4° C. for 5 min at 1,000 rpm after adding PBS (1 mL), and the cell pellet was resuspended in PBS (440 μL). Cells were incubated with ribonuclease A (10 μL; the final concentration 50 μg/mL, Sigma, St. Louis, Mo., US) at 37° C. for 30 min, and with 2.5 mg/mL propidium iodide (4 μL; the final concentration of PI 20 μg/mL, Sigma) at 4° C. for 10 min in the dark. Stained cells were analyzed by flow cytometry (Sandstrom, K. et al., J Immunol Methods, 240: 55 (2000) and Zhang L. et al., Cancer Lett, 142: 129 (1999)) after removing aggregated cells through a nylon mesh and increasing the cell volume with PBS.
(3) Cultured Cell Lines Were Incubated With rGal-9 for the Appropriate Length of Time, 24 hr for Instance. Apoptosis Analysis was Conducted by the Above-Described PI Method (1).
(§1) Apoptotic activity was measured by the PI method. When cells are incubated with galectin-9, washed, then subjected to alcohol-fixation, and fragmented DNAs flow out of the cell. Subsequently, incubation with PI leads to a reduction in the fluorescence intensity of apoptotic cells. Apoptosis was examined by the percentage of the cells wherein their fluorescence intensity was reduced. […] This induction was at the same level as H2O2 (hydrogen peroxide solution) that was used as a positive control. In addition, the same results were obtained by another method for examining apoptosis, TUNEL assay.

The test system of the next data set is HMC-1. Kind of data set: Apoptosis analysis by PI method in HMC-1 cells. The data set is classed as cell-based. Particulars: incubation with galectin-9 at least 48 hr or more. As for the experimental part:
as §1

The subject of a further data set is MM-RU. In words: Induction of cell aggregation in MM-RU. The data set is classed as cell-based, human. The note with it: for aggregation: FIG. 14. As for the experimental part:
Recombinant galectin-9 prepared via gene transfer into E. coli was added to MM-RU exogenously, and the efficacy of galectin-9 was then examined. As a result, galectin-9 induced aggregation of MM-RU at the concentration of 0.1 μM or higher. In addition, the galectin-9 efficacy was concentration-dependent, and significant between 0.3-1.0 μM.

In the next data set the test system is CD8+ T cells. Kind of data set: Apoptosis induction in peripheral blood CD8+ T cells, resting or anti-CD3 Ab-activated. The data set is classed as cell-based, human. Particulars: galectin (+), 1 μM rGal-9. As for the experimental part:
(§2) To prepare a well plate coated with anti-CD3 Ab, 24 well palates were incubated with TBS solution (pH 8.0) containing 3 μg/mL anti-CD3 Ab (Inmunotech, Marseille, France) per well at 4° C. overnight, and each well was washed with PBS after removing anti-CD3 Ab solution.
(§3) Mononuclear leukocyte fractions were isolated from heparinized blood using HISTOPAQUE (Registered trademark, SIGMA). CD4-Positive Isolation Kit (DYNAL, Oslo, Norway) was used for isolation of CD4+ T cells and Dynabeads M-450 CD8 (Registered trademark, DYNAL, Oslo, Norway) for isolation of CD8+ T cells, respectively, according to the manufacturer's instructions.
(§4) To activate T cells, CD4+ or CD8+ cells at 1×10^6 cells/mL in an RPMI-1640 medium containing 10% FCS were incubated on the plate coated with anti-CD3 Ab for 20 to 24 hr at 37° C. in a 5% CO2 incubator, and incubated with rGal-9 [(His)6-Gal-9(S)] at 37° C. in a 5% CO2 incubator. Then apoptosis assay was conducted as described in (c). That is, cells were incubated with 50 μg/mL PI (SIGMA) at 37° C. for 10 min in the dark. Stained cells were analyzed by flow cytometry (Sandstrom, K. et al., J Immunol Methods, 240: 55 (2000) and Zhang L. et al., Cancer Lett, 142: 129 (1999)).
(§5) Apoptosis assay was also conducted for non-activated (resting) T cells as described above after incubating them with rGal-9 [(His)6-Gal-9(S)] at 37° C. in a 5% Co2 incubator.
(§6) For comparison, galectin-1 and -3 treated cells were analyzed.
(§7) Next, apoptosis induction by Gal-9 in human peripheral blood T cells was examined. T cells were separated into CD4+ and CD8+ T cells followed by incubation in the presence or absence of anti-CD3 Ab. Resting T cells and anti-CD3 Ab-activated T cells were incubated with 1 μM rGal-9.

The next data set concerns Jurkat T cells. The note with it: 16 hr incubation with 1 mM galectin-9, PI, FACS. As for the experimental part: (§8) Cytotoxicities in Jurkat T cells, K-562 leukemic cells, and normal lymphocytes were measured by flow cytometry analysis using PI. That is, PI invades into the damaged target cells when PI is added for the last 15 min of 16 hr incubation with 1 mM galectin-9. Fluorescence generated by PI is measured by FACS. Untreated cells were used as a negative control group, formalin-fixed cells as a 100% dead cell group, and H2O2 (hydrogen peroxide solution)-treated cells as a positive control group, respectively.

A further data set deals with K-562 leukemic cells. Particulars: 16 hr incubation with 1 mM galectin-9, PI, FACS. As for the experimental part:
as §8

In a further data set the test system is normal lymphocytes. Particulars: Normal Lymphocyte; 16 hr incubation with 1 mM galectin-9; PI, FACS. As for the experimental part:
as §8

In a further data set the test system is CD4+ T cells. In words: Apoptosis induction in peripheral blood CD4+ T cells, resting or anti-CD3 Ab-activated. The data set is classed as cell-based, human. Particulars: galectin (+), 1 μM rGal-9. The protocol:
as §2, §3, §4, §5, §6, §7

The next data set concerns CD4 T Cell. In words: Apoptosis induction in non-activated normal CD4 T cells (Table 4). It counts as cell-based. Particulars: 1 μM galectin-9, 1 μM galectin-3. The protocol:
(§9) For example, measurements of apoptosis induction in the presence of 1 μM galectin-9 are as shown in Table 4 below (also 1 μM for galectin-3 in Table 4).

The next data set has as its system CD8 T Cell. In words: Apoptosis induction in non-activated normal CD8 T cells (Table 4). The data set is classed as cell-based. Particulars: 1 μM galectin-9, 1 μM galectin-3. The protocol: as §9
Where [1] appears, read: recombinant galectin-9 added exogenously.
[2] abbreviates: CD3 (+) cells activated on anti-CD3 Ab-coated plates.
[3] abbreviates: CD3 (−) untreated resting cells.

As for “Galectin-9: Recombinant human galectin-9 expressed in E. coli and purified on lactose-agarose”, the “effect on DEX-induced apoptosis” value with eosinophils is “inhibits”. Also, the “effect on anti-Fas Ab-induced apoptosis” value in the data set on eosinophils was “stimulates”. In addition, the “apoptosis induction, Gal9 (+)” value in the data set with MOLT-4 cells (MOLT4, incubation with galectin-9 at least 48 hr or more) came to 34.5; in the data set on HMC-1, 26.2. Besides, in the data set on MOLT-4 cells (PI method), the “apoptosis induction, time and dose dependence” value is “time-dependent and dose-dependent”. Besides, in the data set with MOLT-4 cells (rGal-9 1 μM, 24 hr, FIG. 3), the apoptosis induction entry is given as “induced”. The “PI-stained cells, which underwent apoptosis” value in the data set with MOLT-4 cells (rGal-9 1 μM, PI method, FIG. 1A, PBS control 14.8%) turned out to be 34.5%. The aggregation result in the data set on MM-RU (2 hr after addition) is given as “aggregation was observed”; in the data set with MM-RU (12 hr after addition), “more intensive aggregation”. The “concentration at which aggregation of MM-RU was induced” value in the data set on MM-RU (setting [1]) is not below 0.1 µM. Further, in the data set with MM-RU (setting [1]), the “concentration at which the efficacy was significant” value was in the range of 0.3 to 1.0 µM. Further, the “apoptosis induction, CD8” value worked out at 25.7 with CD8+ T cells (setting [2]) and 17.8 in the data set with CD8+ T cells (setting [3]). Moreover, the “cytotoxicity, 16 hours” value is 46.2 in the data set on Jurkat T cells, 23.4 in the data set with K-562 leukemic cells and 2.47 in the data set with normal lymphocytes. The “apoptosis induction, CD4” value with CD4+ T cells (setting [2]) is listed as 41.7; in the data set on CD4+ T cells (setting [3]), 10.8. Moreover, the “apoptosis induction, CD4 T Cell Resting” value with CD4 T Cell is 1.8. In addition, the “apoptosis induction, CD8 T Cell Resting” value with CD8 T Cell was 1.4.
